Measurements from ChEMBL document CHEMBL1828558, “Discovery of (+)-N-(3-aminopropyl)-N-[1-(5-benzyl-3-methyl-4-oxo-[1,2]thiazolo[5,4-d]pyrimidin-6-yl)-2-methylpropyl]-4-methylbenzamide (AZD4877), a kinesin spindle protein inhibitor and potential anticancer agent” (J Med Chem, 2011).

Tests used:
COLO 205 = assay: Anticancer activity against human COLO205 cells after 72 hrs by MTS/PMS assay; format: functional, cell-based
[1] = target: T1, Kinesin-like protein KIF11 (Homo sapiens, UniProt P52732); assay: Inhibition of human recombinant C-terminal His6-tagged KSP ATPase activity after 1 hr by malachite green assay
T1 sequence (P52732 whole entry): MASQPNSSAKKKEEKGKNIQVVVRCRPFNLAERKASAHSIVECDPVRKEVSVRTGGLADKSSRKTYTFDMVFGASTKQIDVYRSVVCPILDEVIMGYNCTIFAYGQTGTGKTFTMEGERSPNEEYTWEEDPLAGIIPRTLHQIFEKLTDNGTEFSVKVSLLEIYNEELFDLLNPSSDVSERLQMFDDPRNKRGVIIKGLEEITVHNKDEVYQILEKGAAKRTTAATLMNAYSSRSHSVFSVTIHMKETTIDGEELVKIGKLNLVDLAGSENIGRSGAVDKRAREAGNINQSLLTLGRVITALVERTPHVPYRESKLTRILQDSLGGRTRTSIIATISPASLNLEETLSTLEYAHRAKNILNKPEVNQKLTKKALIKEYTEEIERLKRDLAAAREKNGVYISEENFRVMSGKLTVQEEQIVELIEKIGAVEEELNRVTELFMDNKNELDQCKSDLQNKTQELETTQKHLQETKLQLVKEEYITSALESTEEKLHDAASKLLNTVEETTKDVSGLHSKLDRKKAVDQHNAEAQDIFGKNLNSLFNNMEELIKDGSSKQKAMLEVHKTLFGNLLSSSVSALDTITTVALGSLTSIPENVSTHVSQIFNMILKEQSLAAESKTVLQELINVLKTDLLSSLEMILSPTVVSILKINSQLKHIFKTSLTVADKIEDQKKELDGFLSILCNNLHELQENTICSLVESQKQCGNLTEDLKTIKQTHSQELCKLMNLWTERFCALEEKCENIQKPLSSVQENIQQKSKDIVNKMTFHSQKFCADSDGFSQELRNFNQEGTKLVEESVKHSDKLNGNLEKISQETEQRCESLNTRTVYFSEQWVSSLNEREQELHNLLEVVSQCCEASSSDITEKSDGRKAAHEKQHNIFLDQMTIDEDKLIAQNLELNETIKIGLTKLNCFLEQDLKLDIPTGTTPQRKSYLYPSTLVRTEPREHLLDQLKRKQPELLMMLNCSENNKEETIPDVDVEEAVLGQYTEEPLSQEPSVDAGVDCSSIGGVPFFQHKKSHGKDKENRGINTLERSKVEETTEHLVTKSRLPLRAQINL

| Structure (SMILES) | IC50 (COLO 205; Homo sapiens, COLO 205, 72 h) | IC50 [1] | IC50 (COLO 205; colo 205) |
| --- | --- | --- | --- |
| CCC(c1nc2ccsc2c(=O)n1Cc1ccccc1)N(CCCN)C(=O)CC(C)C (stereo not drawn) | – | 4540 nM | – |
| CCC(c1nc2nccnc2c(=O)n1Cc1ccccc1)N(CCCN)C(=O)c1ccc(C)cc1 (stereo not drawn) | – | 5460 nM | – |
| CCC(c1nc2ccsc2c(=O)n1Cc1ccccc1)N(CCCN)C(=O)C1CC1 (stereo not drawn) | – | 6700 nM | – |
| CCC(c1nc2ccsc2c(=O)n1Cc1ccccn1)N(CCCN)C(=O)c1ccc(C)cc1 (stereo not drawn) | – | 3500 nM | – |
| Cc1nsc2nc(C(C(C)C)N(CCCN)C(=O)c3ccc(Br)cc3)n(Cc3ccccc3)c(=O)c12 (stereo not drawn) | 6 nM | – | – |
| CCC(c1nc2ccsc2c(=O)n1Cc1cccnc1)N(CCCN)C(=O)c1ccc(C)cc1 (stereo not drawn) | – | 3800 nM | – |
| CCC(NC(=O)c1ccc(C)cc1)c1nc2ccsc2c(=O)n1Cc1ccccc1 (stereo not drawn) | – | 9000 nM | – |
| CCC(c1nc2ccsc2c(=O)n1Cc1ccccc1)N(CCCN)C(=O)c1ccc(OC(F)(F)F)cc1 (stereo not drawn) | – | 2460 nM | – |
| CCC(c1nc2snc(C)c2c(=O)n1Cc1cccc(F)c1)N(CCCN)C(=O)c1ccc(C)cc1 (single isomer, unassigned; (+)) | 13 nM | – | – |
| CCC(c1nc2ccsc2c(=O)n1Cc1ccccc1)N(CCCNC(=O)OC(C)(C)C)C(=O)c1ccc(C)cc1 (stereo not drawn) | – | 10000 nM | – |
| Cc1ccc(C(=O)N(CCCN)C(c2nc3snc(C)c3c(=O)n2Cc2ccc(F)cc2)C(C)C)cc1 (stereo not drawn) | 19 nM | – | – |
| CCC(c1nc2ccsc2c(=O)[nH]1)N(CCCN)C(=O)c1ccc(C)cc1 (stereo not drawn) | – | 9000 nM | – |
| Cc1ccc(C(=O)N(CCCN)C(c2nc3snc(C)c3c(=O)n2Cc2cccc(F)c2)C(C)C)cc1 (single isomer, unassigned; (+)) | 5 nM | – | – |
| CCC(c1nc2ccsc2c(=O)n1Cc1ccccc1)N(CCCN)C(=O)c1ccc(C(=O)OC)cc1 (stereo not drawn) | – | 5960 nM | – |
| CCCCC(=O)N(CCCN)C(CC)c1nc2ccsc2c(=O)n1Cc1ccccc1 (stereo not drawn) | – | 5520 nM | – |
| CCC(c1nc2ccsc2c(=O)n1Cc1ccccc1)N(CCCN)C(=O)C1CCC(OC)CC1 (stereo not drawn) | – | 9000 nM | – |
| CCC(c1nc2ccsc2c(=O)n1Cc1ccccc1)N(CCCNC(C)=O)C(=O)c1ccc(C)cc1 (stereo not drawn) | – | 2920 nM | – |
| CCC(c1nc2ccsc2c(=O)n1Cc1ccncc1)N(CCCN)C(=O)c1ccc(C)cc1 (stereo not drawn) | – | 5310 nM | – |
| CCC(c1nc2snc(C)c2c(=O)n1Cc1ccccc1)N(CCCN)C(=O)c1ccc(C)c(F)c1 (stereo not drawn) | 12 nM | – | – |
| CCC(c1nc2ccsc2c(=O)n1Cc1ccccc1)N(CCCNS(C)(=O)=O)C(=O)c1ccc(C)cc1 (stereo not drawn) | – | 5990 nM | – |
| CCC(c1nc2ccsc2c(=O)n1Cc1ccccc1)N(CCCN)C(=O)c1ccc(C#N)cc1 (stereo not drawn) | – | 2700 nM | – |
| CCC(c1nc2ccsc2c(=O)n1Cc1ccccc1)N(CCCN)C(=O)c1ccc2nccnc2c1 (stereo not drawn) | – | 3210 nM | – |
| CCC(c1nc2ccsc2c(=O)n1Cc1ccccc1)N(CCCN)C(=O)C1CCCC1 (stereo not drawn) | – | 4220 nM | – |
| Cc1ccc(C(=O)N(CCCN)C(c2nc3snc(C)c3c(=O)n2Cc2ccccc2)C(C)C)cc1 (stereo in doubt; 65) [AZD-4877] | 2 nM | – | – |
| CCC(c1nc2ccsc2c(=O)n1Cc1cscn1)N(CCCN)C(=O)c1ccc(C)cc1 (stereo not drawn) | – | 9090 nM | – |
| CCC(c1nc2snc(C)c2c(=O)n1Cc1ccc(F)cc1)N(CCCN)C(=O)c1ccc(C)cc1 (stereo not drawn) | 105 nM | – | – |
| Cc1ccc(C(=O)N(CCCN)C(c2nc3snc(C)c3c(=O)n2Cc2ccccc2)C(C)C)cc1F (single isomer, unassigned; (+)) | 10 nM | – | – |
| CCC(c1nc2snc(C)c2c(=O)n1Cc1ccccc1)N(CCCN)C(=O)c1ccc(Br)cc1 (stereo not drawn) | 14 nM | – | – |

Continued, values first:

| IC50 (COLO 205; Homo sapiens, COLO 205, 72 h) | IC50 [1] | IC50 (COLO 205; colo 205) | Structure (SMILES) |
| --- | --- | --- | --- |
| 510 nM | 210 nM | – | CCC(c1nc2ccsc2c(=O)n1Cc1ccccc1)N(CCCN)C(=O)c1ccc(C(F)(F)F)cc1 (stereo not drawn) |
| 720 nM | 310 nM | – | CCC(c1nc2ccsc2c(=O)n1Cc1ccccc1)N(CC1CNCCO1)C(=O)c1ccc(C)cc1 (stereo not drawn) |
| 580 nM | 310 nM | – | CCC(c1nc2ccsc2c(=O)n1Cc1ccccc1)N(CCCN)C(=O)c1cccc(C(F)(F)F)c1 (stereo not drawn) |
| 1710 nM | 630 nM | – | CCC(c1nc2ccsc2c(=O)n1Cc1cc(C)on1)N(CCCN)C(=O)c1ccc(C)cc1 (stereo not drawn) |
| 763 nM | 141 nM | – | CCC(c1nc2sc(Br)cc2c(=O)n1Cc1ccccc1)N(CCCN)C(=O)c1ccc(C)cc1 (stereo not drawn) |
| 650 nM | 130 nM | – | CCC(c1nc2ccsc2c(=O)n1Cc1ccc(C)cc1)N(CCCN)C(=O)c1ccc(C)cc1 (stereo not drawn) |
| 980 nM | 390 nM | – | CCC(c1nc2ccsc2c(=O)n1Cc1ccccc1)N(CCCCN)C(=O)c1ccc(C)cc1 (stereo not drawn) |
| 1360 nM | 140 nM | – | CCC(c1nc2ccsc2c(=O)n1Cc1ccccc1F)N(CCCN)C(=O)c1ccc(C)cc1 (stereo not drawn) |
| 200 nM | 30 nM | – | CCC(c1nc2ccsc2c(=O)n1Cc1ccccc1)N(CCCN)C(=O)c1ccc2ccccc2c1 (stereo not drawn) |
| – | 51 nM | – | CCC(c1nc2snc(C)c2c(=O)n1Cc1ccccc1)N(CCCN)C(=O)c1ccc(C)cc1 (single isomer, unassigned; (-)) |
| 1290 nM | 1070 nM | – | CCC(c1nc2ccsc2c(=O)n1Cc1ccccc1)N(C(=O)c1ccc(C)cc1)C1CCNCC1 (stereo not drawn) |
| 45 nM | 5 nM | – | CCC(c1nc2c(C)nsc2c(=O)n1Cc1ccccc1)N(CCCN)C(=O)c1ccc(C)cc1 (stereo not drawn) |
| 260 nM | 150 nM | – | CCC(c1nc2ccsc2c(=O)n1Cc1ccccc1)N(CCCN)C(=O)c1ccc2c(c1)OCO2 (stereo not drawn) |
| 1400 nM | 323 nM | – | CCC(c1nc2ncccc2c(=O)n1Cc1ccccc1)N(CCCN)C(=O)c1ccc(C)cc1 (stereo not drawn) |
| 790 nM | 160 nM | – | CCC(c1nc2ccsc2c(=O)n1Cc1ccc(OC)cc1)N(CCCN)C(=O)c1ccc(C)cc1 (stereo not drawn) |
| 200 nM | 50 nM | – | CCC(c1nc2ccsc2c(=O)n1Cc1ccccc1)N(CCCN)C(=O)c1ccc(Cl)cc1 (stereo not drawn) |
| 464 nM | 85 nM | – | CCC(c1nc2sc(Cl)cc2c(=O)n1Cc1ccccc1)N(CCCN)C(=O)c1ccc(C)cc1 (stereo not drawn) |
| 330 nM | 20 nM | – | CCC(c1nc2ccsc2c(=O)n1Cc1cccc(F)c1)N(CCCN)C(=O)c1ccc(C)cc1 (stereo not drawn) |
| 160 nM | 30 nM | – | CCC(c1nc2ccsc2c(=O)n1Cc1ccccc1)N(CCCN)C(=O)c1ccc(Br)cc1 (stereo not drawn) |
| 640 nM | 210 nM | – | CCC(c1nc2ccsc2c(=O)n1Cc1ccccc1)N(CCCN)C(=O)c1ccc(OC)cc1 (stereo not drawn) |

| IC50 (COLO 205; Homo sapiens, COLO 205, 72 h) | IC50 [1] | IC50 (COLO 205; colo 205) | Structure (SMILES) |
| --- | --- | --- | --- |
| 1560 nM | 210 nM | – | CCC(c1nc2ccsc2c(=O)n1Cc1ccc(Cl)cc1)N(CCCN)C(=O)c1ccc(C)cc1 (stereo not drawn) |
| 60 nM | 20 nM | – | CCC(c1nc2ccsc2c(=O)n1Cc1ccccc1)N(CCCN)C(=O)c1ccc(C)c(F)c1 (stereo not drawn) |
| 250 nM | 90 nM | – | CCc1ccc(C(=O)N(CCCN)C(CC)c2nc3ccsc3c(=O)n2Cc2ccccc2)cc1 (stereo not drawn) |
| 3690 nM | 980 nM | – | CCC(c1nc2ccsc2c(=O)n1Cc1ccccc1)N(CCCN)C(=O)c1ccc(C)nc1 (stereo not drawn) |
| 10000 nM | 1440 nM | – | CCC(c1nc2ccsc2c(=O)n1Cc1ccccc1)N(CC1CCNCC1)C(=O)c1ccc(C)cc1 (stereo not drawn) |
| – | 1060 nM | – | CCC(c1nc2ccsc2c(=O)n1Cc1ccccc1)N(CCCN)C(=O)c1ccccc1C (stereo not drawn) |
| – | 40 nM | – | CCC(c1nc2ccsc2c(=O)n1Cc1ccccc1)N(CCCN)C(=O)c1cc2ccccc2s1 (stereo not drawn) |
| – | 1390 nM | – | CCC(c1nc2ccsc2c(=O)n1Cc1ccccc1)N(CCCN)C(=O)c1ccno1 (stereo not drawn) |
| 174 nM | 13 nM | – | CCC(c1nc2ccoc2c(=O)n1Cc1ccccc1)N(CCCN)C(=O)c1ccc(C)cc1 (stereo not drawn) |
| – | 3 nM | 8 nM | CCC(c1nc2sccc2c(=O)n1Cc1ccccc1)N(CCCN)C(=O)c1ccc(C)cc1 (single isomer, unassigned; (+)) |
| 3080 nM | 760 nM | – | CCC(c1nc2ccsc2c(=O)n1CC1CC1)N(CCCN)C(=O)c1ccc(C)cc1 (stereo not drawn) |
| 675 nM | 161 nM | – | CCC(c1nc2sc(Cl)c(Br)c2c(=O)n1Cc1ccccc1)N(CCCN)C(=O)c1ccc(C)cc1 (stereo not drawn) |
| 860 nM | 610 nM | – | CCC(c1nc2ccsc2c(=O)n1Cc1ccccc1)N(CCCN)C(=O)c1ccccc1Cl (stereo not drawn) |
| 140 nM | 90 nM | – | CCC(c1nc2ccsc2c(=O)n1Cc1ccccc1)N(CCCN)C(=O)c1cccc(C)c1 (stereo not drawn) |
| 310 nM | 150 nM | – | CCC(c1nc2ccsc2c(=O)n1Cc1ccccc1)N(CCCN)C(=O)c1ccc(Cl)cc1Cl (stereo not drawn) |
| – | 2310 nM | – | CCC(c1nc2ccsc2c(=O)n1Cc1ccccc1)N(CCCN)C(=O)C1COc2ccccc2O1 (stereo not drawn) |
| – | 410 nM | – | CCC(c1nc2ccsc2c(=O)n1Cc1ccccc1)N(CCCN)C(=O)c1sccc1C (stereo not drawn) |
| – | 1900 nM | – | CCC(c1nc2sccc2c(=O)n1Cc1ccccc1)N(CCCN)C(=O)c1ccc(C)cc1 (single isomer, unassigned; (-)) |
| – | 429 nM | – | Cc1ccc(C(=O)N(CCCN)C(c2nc3snc(C)c3c(=O)n2Cc2ccccc2)C(C)C)cc1 (single isomer, unassigned; (-)) [AZD-4877] |
